# Data reported in ChEMBL document CHEMBL1151529, “Conformationally constrained analogues of DAG.7. Interaction of a medium-size -lactone with protein kinase C (PK-C)_” (Bioorg Med Chem Lett, 1994).
# Columns and labels:
# [1] = Displacement of [3H]phorbol-12,13-dibutyrate from mouse brain protein kinase C
# [2] = target: Protein kinase C alpha type (Rattus norvegicus, UniProt P05696); test: Displacement of [3H]phorbol-12,13-dibutyrate from rat brain protein kinase C alpha
SMILES,Ki [1] [µM],Ki [2] [µM]
CCCCCCCCCCCCCC(=O)O[C@H]1CCC(=O)O[C@@H]1CO,30.5,–
CCCCCCCCCCCCCC(=O)O[C@@H]1CCCC(=O)O[C@H]1CO,–,41
CCCCCCCCCCCCCC(=O)O[C@H]1CC(=O)O[C@@H]1CO,5.3,–

# Continued, values first:
Ki [1] [µM],Ki [2] [µM],SMILES
2.5,–,CCCCCCCCCCCCCC(=O)O[C@@H]1CC(=O)O[C@H]1CO
2.8,–,CCCCCCCCCCCCCC(=O)O[C@@H]1CCC(=O)O[C@H]1CO
